Reference: US20250145589A1, “PYRIDINE DERIVATIVE AND USE THEREOF” (SICHUAN HUIYU PHARMACEUTICAL CO., LTD., priority 2021, published 2025)

How the values were obtained:
[1] = tested on: NCI-H358-AMGR drug-resistant cell line; experiment: NCI-H358-AMGR drug-resistant cell proliferation inhibitory activity test; assay type: cell-based; details: 72 h; NCI-H358-AMGR drug-resistant cells, 3 days incubation, CellTiter-Glo
Outline: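 Luminescent CellTiter-Glo read-out after 3-day, 37° C compound exposure (8 points, 5-fold series) of AMG510-resistant NCI-H358 cells plated at 4×10^3 per well.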

KRAS^G12C-SOS1 = KRAS^G12C-SOS1 (Homo sapiens (Human), UniProt P01116, G12C); experiment: HTRF KRAS G12C/SOS1 binding assay; details: Table 5
Sequence of KRAS^G12C-SOS1 (P01116-2 other isoform, or with tags, fused parts or gaps G12C): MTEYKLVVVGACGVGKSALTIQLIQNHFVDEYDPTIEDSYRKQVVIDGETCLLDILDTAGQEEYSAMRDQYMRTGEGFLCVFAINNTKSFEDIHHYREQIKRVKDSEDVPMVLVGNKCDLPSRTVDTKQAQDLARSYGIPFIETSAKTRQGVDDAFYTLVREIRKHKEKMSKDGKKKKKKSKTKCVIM
Description: Initially, a 2 mM stock solution of the test compound (dissolved in DMSO) was serially diluted in five-fold concentrations using DMSO to obtain eight working solutions 1 (200×). Subsequently, each of the eight working solutions 1 was further diluted in a 20-fold gradient by adding 5 μL into 95 μL of Diluent buffer, mixed completely with vortex mixer, resulting in eight working solutions 2 (10×). […] Subsequently, 5 μL of Anti-tag 1-Tb^3+ stock solution and 5 μL of Anti-tag2-XL665 were added to each well, mixed, and incubated at 4° C. for 3 hours. Remove the plate and read on an HTRF® compatible reader, with the excitation light wavelength set at 337 nm and readings recorded at 620 nm and 665 nm. The data results were presented as the ratio of the 665 nm signal value to the 620 nm signal value for each well, calculated as follows: […]. The inhibition rate was calculated using the following formula: […]
Data were analyzed using GraphPad Prism with log (inhibitor) vs. response-Variable Slope (four parameters) fitting calculations for IC50 values.

[2] = tested on: MIA PaCa-2 cells (KRAS G12C mutant); experiment: MIA PaCa-2 cell anti-proliferation (CellTiter-Glo); assay type: cell-based; details: Homo sapiens, 72 h; MIA Paca-2 cells, 3 days, Table 7; read-out: MIA PaCa-2 (IC50)
Outline: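 Viable-cell luminescence (CellTiter-Glo, ≥30 min at 25 °C) measured after a 3-day, 37 °C exposure to compounds at 9 points, 4-fold spaced, in DMEM containing 10% FBS plus 2.5% horse serum. IC50 derived versus no-inhibitor wells.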

Structure (SMILES) | IC50 [1] [nM] | IC50 (KRAS^G12C-SOS1) [nM] | IC50 [2] [nM]
COc1ncc(-c2ccc3ncnc(N4CCN(C(=O)/C=C/C(C)=O)C[C@@H]4C)c3c2)cc1NS(=O)(=O)c1ccc(F)cc1 [Example 153, (S,E)-4-fluoro-N-(2-methoxy-5-(4-(2-methyl-4-(4-oxopent-2-enoyl)piperazin-1-yl)quinazolin-6-yl)pyridin-3-yl)benzenesulfonamide] | 100 | 210 | 56.7
COc1ncc(-c2ccc3ncnc(N4CCC5(CC4)CN(C(=O)/C=C/C(C)=O)C5)c3c2)cc1NS(=O)(=O)c1ccccc1F [Example 150, (E)-2-fluoro-N-(2-methoxy-5-(4-(2-(4-oxopent-2-enoyl)-2,7-diazaspiro[3.5]nonan-7-yl)quinazolin-6-yl)pyridin-3-yl)benzenesulfonamide] | 112 | 236 | 58.5
COc1ncc(-c2ccc3ncnc(N4CCN(C(=O)/C=C/C(C)=O)CC4)c3c2)cc1NS(=O)(=O)c1cc(F)ccc1F [Example 94, (E)-2,5-difluoro-N-(2-methoxy-5-(4-(4-(4-oxopent-2-enoyl)piperazin-1-yl)quinazolin-6-yl)pyridin-3-yl)benzenesulfonamide] | 65.2 | 189 | 65.9
COc1ncc(-c2ccc3ncnc(C4CCN(C(=O)/C=C/C(C)=O)CC4)c3c2)cc1NS(=O)(=O)c1c(F)cccc1Cl [Example 206, (E)-2-chloro-6-fluoro-N-(2-methoxy-5-(4-(1-(4-oxopent-2-enoyl)piperidin-4-yl)quinazolin-6-yl)pyridin-3-yl) benzenesulfonamide] | 9.5 | 188 | 21
COc1ncc(-c2ccc3ncnc(N4CCN(C(=O)/C=C/C(C)=O)CC4)c3n2)cc1NS(=O)(=O)c1ccncc1F [Example 220, (E)-3-fluoro-N-(2-methoxy-5-(4-(4-(4-oxopent-2-enoyl)piperazin-1-yl)pyrido[3,2-d]pyrimidin-6-yl)pyridin-3-yl) pyridine-4-sulfonamide] | 207 | 274 | 58.5
[2H]C([2H])([2H])Oc1ncc(-c2ccc3ncnc(N4CCN(C(=O)/C=C/C(C)=O)CC4)c3c2)cc1NS(=O)(=O)c1ccc(F)cc1F [Example 191, (E)-2,4-difluoro-N-(2-(methoxy-d3)-5-(4-(4-(4-oxopent-2-enoyl)piperazin-1-yl)quinazolin-6-yl)pyridin-3-yl)benzene-sulfonamide] | 36.4 | 143 | 54.2
COc1ncc(-c2ccc3ncnc(N4CC5CCC(C4)N5C(=O)/C=C/C(C)=O)c3c2)cc1NS(=O)(=O)c1ccc(F)cc1Cl [Example 175, 2-chloro-4-fluoro-N-(2-methoxy-5-(4-(8-((E)-4-oxopent-2-enoyl)-3,8-diazabicyclo [3.2.1]octan-3-yl)quinazolin-6-yl)pyridin-3-yl)benzene-sulfonamide] | 58.1 | 288 | 22.8
COc1ncc(-c2ccc3ncnc(N4CCC5(CC4)CN(C(=O)/C=C/C(C)=O)C5)c3c2)cc1NS(=O)(=O)c1ccc(F)cc1Cl [Example 171, (E)-2-chloro-4-fluoro-N-(2-methoxy-5-(4-(2-(4-oxopent-2-enoyl)-2,7-diazaspiro[3.5]nonan-7-yl)quinazolin-6-yl)pyridin-3-yl)benzene-sulfonamide] | 41.5 | 441 | 12.6
COc1ncc(-c2ccc3ncnc(C4CCN(C(=O)/C=C/C(C)=O)CC4)c3n2)cc1NS(=O)(=O)c1c(F)cccc1F [Example 233, (E)-2,6-difluoro-N-(2-methoxy-5-(4-(1-(4-oxopent-2-enoyl)piperidin-4-yl)pyrido[3,2-d]pyrimidin-6-yl)pyridin-3-yl)benzenesulfonamide] | 52 | 204 | 14.2
COc1ncc(-c2ccc3ncnc(N4CCN(C(=O)/C=C/C(C)=O)CC4)c3n2)cc1NS(=O)(=O)c1c(F)cncc1F [Example 210, (E)-3,5-difluoro-N-(2-methoxy-5-(4-(4-(4-oxopent-2-enoyl)piperazin-1-yl)pyrido[3,2-d]pyrimidin-6-yl)pyridin-3-yl)pyridine-4-sulfonamide] | 287 | 131 | 47.7
C=C(C(C)=O)C(=O)N1CCN(c2ncnc3ccc(-c4cnc(OC)c(NS(=O)(=O)c5ccc(F)cc5F)c4)cc23)CC1 [Example 168, 2,4-difluoro-N-(2-methoxy-5-(4-(4-(2-methylene-3-oxobutanoyl)piperazin-1-yl)quinazolin-6-yl)pyridin-3-yl)benzenesulfonamide] | 240 | 546 | 48.5
COC(=O)c1ncc(-c2ccc3ncnc(N4CCN(C(=O)/C=C/C(C)=O)CC4)c3c2)cc1NS(=O)(=O)c1ccc(F)cc1F [Example 181, methyl (E)-3-((2,4-difluoro-phenyl)sulfonamido)-5-(4-(4-(4-oxopent-2-enoyl)piperazin-1-yl)quinazolin-6-yl)picolinate] | 284 |  | 56.2
COc1ncc(-c2ccc3ncnc(N4CC5CCC4CN5C(=O)/C=C/C(C)=O)c3c2)cc1NS(=O)(=O)c1ccc(F)cc1F (stereo not drawn) [Example 158, (E)-2,4-difluoro-N-(2-methoxy-5-(4-(5-(4-oxopent-2-enoyl)-2,5-diazabicyclo[2.2.2]octan-2-yl)quinazolin-6-yl)pyridin-3-yl)benzenesulfonamide] | 155 | 191 | 140
COc1ncc(-c2ccc3ncnc(N4CCN(C(=O)/C=C/C(C)=O)CC4)c3c2)cc1NS(=O)(=O)c1ccc(F)cc1F [Example 6, (E)-2,4-difluoro-N-(2-methoxy-5-(4-(4-(4-oxopent-2-enoyl)piperazin-1-yl)quinazoline-6-yl)pyridin-3-yl)benzenesulfonamide] | 15.6 | 323 | 17.1
CC(=O)/C=C/C(=O)N1CCN(c2ncnc3ccc(-c4cnc(OCC(F)(F)F)c(NS(=O)(=O)c5ccc(F)cc5F)c4)cc23)CC1 [Example 159, (E)-2,4-difluoro-N-(5-(4-(4-(4-oxopent-2-enoyl)piperazin-1-yl)quinazolin-6-yl)-2-(2,2,2-trifluoroethoxy)pyridin-3-yl)benzenesulfonamide] | 361 |  | 357
COc1ncc(-c2ccc3ncnc(N4CCN(C5CN(C(=O)/C=C/C(C)=O)C5)CC4)c3c2)cc1NS(=O)(=O)c1ccc(F)cc1F [Example 56, (E)-2,4-difluoro-N-(2-methoxy-5-(4-(4-(1-(4-oxopent-2-enoyl)azetidin-3-yl)piperazin-1-yl)quinazolin-6-yl)pyridin-3-yl)benzenesulfon-amide] | 116 | 471 | 
COc1ncc(-c2ccc3ncnc(N4CCN(C(=O)/C=C/C(C)=O)CC4)c3c2)cc1NS(C)(=O)=O [Example 170, (E)-N-(2-methoxy-5-(4-(4-(4-oxopent-2-enoyl)piperazin-1-yl)quinazolin-6-yl)pyridin-3-yl)methane-sulfonamide] | 380 |  | 118
COc1ncc(-c2ccc3ncnc(N4CCC5(CC=CC5=O)CC4)c3c2)cc1NS(=O)(=O)c1ccc(F)cc1F [Example 70, 2,4-difluoro-N-(2-methoxy-5-(4-(1-oxo-8-azaspiro[4,5]dec-2-en-8-yl)quinazolin-6-yl)pyridin-3-yl)benzenesulfonamide] | 74.5 |  | 40.1
COc1ncc(-c2ccc3ncnc(N4CCN(C(=O)/C=C/n5ccnn5)CC4)c3c2)cc1NS(=O)(=O)c1ccc(F)cc1F [Example 10, (E)-N-(5-(4-(4-(3-(1H-1,2,3-triazol-1-yl)acryloyl)piperazin-1-yl)quinazolin-6-yl)-2-methoxypyridin-3-yl)-2,4-difluorobenzenesulfonamide] | 86.6 |  | 83.2
C=CC(=O)N1CCN(c2ncnc3ccc(-c4cnc(OC)c(NS(=O)(=O)c5ccc(F)cc5F)c4)cc23)[C@@H](C)C1 [Example 7, (S)—N-(5-(4-(4-acryloyl-2-methylpiperazin-1-yl)quinazolin-6-yl)-2-methoxypyridin-3-yl)-2,4-difluorobenzenesulfonamide] | 41.7 |  | 32.3
COc1ncc(-c2ccc3ncnc(N4CCN(C(=O)/C=C/C(C)=O)CC4)c3c2)cc1NS(=O)(=O)c1ccc(C#N)cc1F [Example 123, (E)-4-cyano-2-fluoro-N-(2-methoxy-5-(4-(4-(4-oxopent-2-enoyl)piperazin-1-yl)quinazolin-6-yl)pyridin-3-yl)benzenesulfonamide] | 118 |  | 84.1
COc1ncc(-c2ccc3ncnc(N4CCN(C(=O)/C=C/C(C)=O)CC4)c3c2)cc1NS(=O)(=O)c1cccc(F)c1F [Example 90, (E)-2,3-difluoro-N-(2-methoxy-5-(4-(4-(4-oxopent-2-enoyl)piperazin-1-yl)quinazolin-6-yl)pyridin-3-yl)benzenesulfonamide] | 56.2 |  | 51.9
